Data as given in patent US9598389B2, “Dihydrobenzofuran derivatives as insecticidal compounds” (SYNGENTA PARTICIPATIONS AG, priority 2013, dated 2017).

What was measured:
Format in all cases: in vivo
[1] = test system: Spodoptera Littoralis (Egyptian Cotton Leaf Worm); assay: Spodoptera littoralis cotton leaf disc spray test; conditions: foliar, 72 h, application rate of 200 ppm, L1 larvae, 3 days after infestation, read-out: control (at least one of mortality, anti-feedant effect, growth inhibition)
Description: Spodoptera Littoralis (Egyptian Cotton Leaf Worm)
Cotton leaf discs were placed on agar in 24-well microtiter plates and sprayed with aqueous test solutions prepared from 10,000 ppm DMSO stock solutions. After drying the leaf discs were infested with five L1 larvae. The samples were assessed for mortality, anti-feedant effect, and growth inhibition in comparison to untreated samples 3 days after infestation. Control of Spodoptera littoralis by a test sample is when at least one of mortality, anti-feedant effect, and growth inhibition is higher than the untreated sample.

[2] = test system: Plutella xylostella (Diamond Back Moth); assay: Plutella xylostella L2 larvae test on artificial diet; conditions: 120 h, application rate of 200 ppm, 5 days after infestation, read-out: effect in at least one of the two categories (mortality or growth inhibition)
Description: Plutella xylostella (Diamond Back Moth):
24-well microtiter plates with artificial diet were treated with aqueous test solutions prepared from 10,000 ppm DMSO stock solutions by pipetting. After drying, the plates were infested with L2 larvae (10 to 15 per well). The samples were assessed for mortality and growth inhibition in comparison to untreated samples 5 days after infestation.

[3] = test system: Heliothis virescens (Tobacco Budworm); assay: Heliothis virescens egg/larval test on artificial diet; conditions: application rate of 200 ppm, eggs 0-24 h old, 5 days after infestation, read-out: egg or larval mortality
Description: Heliothis virescens (Tobacco Budworm):
Eggs (0-24 h old) were placed in 24-well microtiter plates on artificial diet and treated with aqueous test solutions prepared from 10,000 ppm DMSO stock solutions by pipetting. The samples were assessed for egg and larval mortality 5 days after infestation.

[4] = test system: Myzus persicae (Green Peach Aphid); assay: Myzus persicae sucrose solution feeding test; conditions: 120 h, test rate of 12 ppm, 5 days after infestation
Description: Myzus persicae (Green Peach Aphid)
Test compounds from 10,000 ppm DMSO stock solutions were applied by pipette into 24-well microtiter plates and mixed with sucrose solution. The plates were closed with a stretched Parafilm. A plastic stencil with 24 holes was placed onto the plate and infested pea seedlings were placed directly on the Parafilm. The infested plate was closed with a gel blotting paper and another plastic stencil and then turned upside down. The samples were assessed for mortality 5 days after infestation.

[5] = test system: Thrips tabaci (Onion Thrips); assay: Thrips tabaci sunflower leaf disc spray test; conditions: foliar, 144 h, application rate of 200 ppm, population of mixed ages, 6 days after infestation
Description: Thrips tabaci (Onion Thrips):
Sunflower leaf discs were placed on agar in 24-well microtiter plates and sprayed with aqueous test solutions prepared from 10,000 ppm DMSO stock solutions. After drying the leaf discs were infested with a thrips population of mixed ages. The samples were assessed for mortality 6 days after infestation.

[6] = test system: Diabrotica balteata (Corn Root Worm); assay: Diabrotica balteata L2 larvae test on artificial diet; conditions: 120 h, application rate of 200 ppm, 5 days after infestation, read-out: effect in at least one of the two categories (mortality or growth inhibition)
Description: Diabrotica balteata (Corn Root Worm):
24-well microtiter plates with artificial diet were treated with aqueous test solutions prepared from 10,000 ppm DMSO stock solutions by pipetting. After drying, the plates were infested with L2 larvae (6 to 10 per well). The samples were assessed for mortality and growth inhibition in comparison to untreated samples 5 days after infestation.

[7] = test system: Tetranychus urticae (Two-Spotted Spider Mite); assay: Tetranychus urticae bean leaf disc spray test; conditions: foliar, 192 h, application rate of 200 ppm, 8 days after infestation, read-out: mortality on mixed population (mobile stages)
Description: Tetranychus urticae (Two-Spotted Spider Mite):
Bean leaf discs on agar in 24-well microtiter plates were sprayed with aqueous test solutions prepared from 10,000 ppm DMSO stock solutions. After drying the leaf discs were infested with a mite population of mixed ages. The samples were assessed for mortality on mixed population (mobile stages) 8 days after infestation.

N#Cc1ccc(-c2ccc3c(c2)CC(c2cc(Cl)cc(Cl)c2)(C(F)(F)F)O3)cc1N1CCCC1=O (stereo not shown) [Compound 261, 4-[2-(3,5-Dichloro-phenyl)-2-trifluoromethyl-2,3-dihydro-benzofuran-5-yl]-2-(2-oxo-pyrrolidin-1-yl)-benzonitrile]
≥ 80%: percent control (mortality, anti-feedant effect or growth inhibition) at 200 ppm [1] | percent effect (mortality or growth inhibition) at 200 ppm [2]

O=C(Nc1cccc(-c2ccc3c(c2)CC(c2cc(Cl)cc(Cl)c2)(C(F)(F)F)O3)c1F)C1CC1 (stereo not shown) [Compound 42, N-(3-(2-(3,5-dichlorophenyl)-2-(trifluoromethyl)-2,3-dihydrobenzofuran-5-yl)-2-fluorophenyl)cyclopropanecarboxamide]
≥ 80%: percent control (mortality, anti-feedant effect or growth inhibition) at 200 ppm [1] | mortality at 200 ppm [3]

CCC(=O)Nc1cccc(-c2ccc3c(c2)CC(c2cc(Cl)cc(Cl)c2)(C(F)(F)F)S3)c1 (stereo not shown) [Compound 268, N-[3-[2-(3,5-dichlorophenyl)-2-(trifluoromethyl)-3H-benzothiophen-5-yl]phenyl]propanamide]
≥ 80%: percent control (mortality, anti-feedant effect or growth inhibition) at 200 ppm [1] | percent effect (mortality or growth inhibition) at 200 ppm [2] | mortality at 12 ppm [4] | mortality at 200 ppm [5]

CCC(=O)Nc1cc(-c2ccc3c(c2)CC(c2cc(Cl)cc(Cl)c2)(C(F)(F)F)O3)ccc1C#N (stereo not shown) [Compound 198, N-[2-cyano-5-[2-(3,5-dichlorophenyl)-2-(trifluoromethyl)-3H-benzofuran-5-yl]phenyl]propanamide]
≥ 80%: percent control (mortality, anti-feedant effect or growth inhibition) at 200 ppm [1] | mortality at 200 ppm [3] | percent effect (mortality or growth inhibition) at 200 ppm [2] | percent effect (mortality or growth inhibition) at 200 ppm [6] | mortality at 12 ppm [4] | mortality at 200 ppm [5] | mortality at 200 ppm [7]

O=C(Nc1cccc(-c2ccc3c(c2)CC(c2cc(Cl)cc(Cl)c2)(C(F)(F)F)O3)c1)C1CC1 (stereo not shown) [Compound 141, N-(3-(2-(3,5-dichlorophenyl)-2-(trifluoromethyl)-2,3-dihydrobenzofuran-5-yl)phenyl)cyclopropanecarboxamide]
≥ 80%: percent control (mortality, anti-feedant effect or growth inhibition) at 200 ppm [1] | mortality at 200 ppm [3] | percent effect (mortality or growth inhibition) at 200 ppm [2] | percent effect (mortality or growth inhibition) at 200 ppm [6] | mortality at 12 ppm [4] | mortality at 200 ppm [5]

CCC(=O)Nc1cccc(-c2ccc3c(c2)CC(c2cc(Cl)cc(Cl)c2)(C(F)(F)F)C3O)c1 (stereo not shown) [Compound 270, N-{3-[2-(3,5-Dichloro-phenyl)-1-hydroxy-2-trifluoromethyl-indan-5-yl]-phenyl}-propionamide]
≥ 80%: percent control (mortality, anti-feedant effect or growth inhibition) at 200 ppm [1] | mortality at 200 ppm [3] | percent effect (mortality or growth inhibition) at 200 ppm [2] | percent effect (mortality or growth inhibition) at 200 ppm [6]

CCC(=O)Nc1ccnc(-c2cc3c(cc2Cl)OC(c2cc(Cl)cc(Cl)c2)(C(F)(F)F)C3)c1 (stereo not shown) [Compound 136, N-[2-[6-chloro-2-(3,5-dichlorophenyl)-2-(trifluoromethyl)-3H-benzofuran-5-yl]-4-pyridyl]propanamide]
≥ 80%: percent control (mortality, anti-feedant effect or growth inhibition) at 200 ppm [1] | mortality at 200 ppm [3] | percent effect (mortality or growth inhibition) at 200 ppm [2]

O=C(Nc1cccc(-c2ccc3c(c2)CC(c2cccc(C(F)(F)F)c2)(C(F)(F)F)O3)c1)C1CC1 (stereo not shown) [Compound 182, N-(3-(2-(trifluoromethyl)-2-(3-(trifluoromethyl)phenyl)-2,3-dihydrobenzofuran-5-yl)phenyl)cyclopropanecarboxamide]
≥ 80%: percent control (mortality, anti-feedant effect or growth inhibition) at 200 ppm [1] | mortality at 200 ppm [3] | percent effect (mortality or growth inhibition) at 200 ppm [2]

O=C(Nc1cc(-c2ccc3c(c2)CC(c2cc(Cl)cc(Cl)c2)(C(F)(F)F)O3)ccn1)C1CC1 (stereo not shown) [Compound 137, N-[4-[2-(3,5-dichlorophenyl)-2-(trifluoromethyl)-3H-benzofuran-5-yl]-2-pyridyl]cyclopropanecarboxamide]
≥ 80%: percent control (mortality, anti-feedant effect or growth inhibition) at 200 ppm [1] | mortality at 200 ppm [3] | percent effect (mortality or growth inhibition) at 200 ppm [2] | percent effect (mortality or growth inhibition) at 200 ppm [6]

CCC(=O)Nc1cccc(-c2ccc3c(c2)CC(c2cc(Cl)cc(Cl)c2)(C(F)(F)F)C3=O)c1 (stereo not shown) [Compound 269, N-{3-[2-(3,5-Dichloro-phenyl)-1-oxo-2-trifluoromethyl-indan-5-yl]-phenyl}-propionamide]
≥ 80%: percent control (mortality, anti-feedant effect or growth inhibition) at 200 ppm [1] | mortality at 200 ppm [3] | percent effect (mortality or growth inhibition) at 200 ppm [2] | percent effect (mortality or growth inhibition) at 200 ppm [6] | mortality at 200 ppm [5]

O=C1CCCN1c1cccc(-c2ccc3c(c2)CC(c2cc(Cl)cc(Cl)c2)(C(F)(F)F)O3)c1 (stereo not shown) [Compound 254, 1-{3-[2-(3,5-Dichloro-phenyl)-2-trifluoromethyl-2,3-dihydro-benzofuran-5-yl]-phenyl}-pyrrolidin-2-one]
≥ 80%: percent effect (mortality or growth inhibition) at 200 ppm [2]

CCC(=O)Nc1cc(-c2ccc3c(c2)CC(c2cc(Cl)cc(Cl)c2)(C(F)(F)F)S3)ccc1C#N (stereo not shown) [Compound 267, N-{2-Cyano-5-[2-(3,5-dichloro-phenyl)-2-trifluoromethyl-2,3-dihydro-benzo[b]thiophen-5-yl]-phenyl}-propionamide]
≥ 80%: percent control (mortality, anti-feedant effect or growth inhibition) at 200 ppm [1] | percent effect (mortality or growth inhibition) at 200 ppm [2]
